One test concerns the target T1, rabbit lung ACE (Oryctolagus cuniculus, UniProt P12822).
T1 construct: activity of rabbit lung ACE; from tissue; host or cells: rabbit lung
T1 sequence (P12822 34-1310): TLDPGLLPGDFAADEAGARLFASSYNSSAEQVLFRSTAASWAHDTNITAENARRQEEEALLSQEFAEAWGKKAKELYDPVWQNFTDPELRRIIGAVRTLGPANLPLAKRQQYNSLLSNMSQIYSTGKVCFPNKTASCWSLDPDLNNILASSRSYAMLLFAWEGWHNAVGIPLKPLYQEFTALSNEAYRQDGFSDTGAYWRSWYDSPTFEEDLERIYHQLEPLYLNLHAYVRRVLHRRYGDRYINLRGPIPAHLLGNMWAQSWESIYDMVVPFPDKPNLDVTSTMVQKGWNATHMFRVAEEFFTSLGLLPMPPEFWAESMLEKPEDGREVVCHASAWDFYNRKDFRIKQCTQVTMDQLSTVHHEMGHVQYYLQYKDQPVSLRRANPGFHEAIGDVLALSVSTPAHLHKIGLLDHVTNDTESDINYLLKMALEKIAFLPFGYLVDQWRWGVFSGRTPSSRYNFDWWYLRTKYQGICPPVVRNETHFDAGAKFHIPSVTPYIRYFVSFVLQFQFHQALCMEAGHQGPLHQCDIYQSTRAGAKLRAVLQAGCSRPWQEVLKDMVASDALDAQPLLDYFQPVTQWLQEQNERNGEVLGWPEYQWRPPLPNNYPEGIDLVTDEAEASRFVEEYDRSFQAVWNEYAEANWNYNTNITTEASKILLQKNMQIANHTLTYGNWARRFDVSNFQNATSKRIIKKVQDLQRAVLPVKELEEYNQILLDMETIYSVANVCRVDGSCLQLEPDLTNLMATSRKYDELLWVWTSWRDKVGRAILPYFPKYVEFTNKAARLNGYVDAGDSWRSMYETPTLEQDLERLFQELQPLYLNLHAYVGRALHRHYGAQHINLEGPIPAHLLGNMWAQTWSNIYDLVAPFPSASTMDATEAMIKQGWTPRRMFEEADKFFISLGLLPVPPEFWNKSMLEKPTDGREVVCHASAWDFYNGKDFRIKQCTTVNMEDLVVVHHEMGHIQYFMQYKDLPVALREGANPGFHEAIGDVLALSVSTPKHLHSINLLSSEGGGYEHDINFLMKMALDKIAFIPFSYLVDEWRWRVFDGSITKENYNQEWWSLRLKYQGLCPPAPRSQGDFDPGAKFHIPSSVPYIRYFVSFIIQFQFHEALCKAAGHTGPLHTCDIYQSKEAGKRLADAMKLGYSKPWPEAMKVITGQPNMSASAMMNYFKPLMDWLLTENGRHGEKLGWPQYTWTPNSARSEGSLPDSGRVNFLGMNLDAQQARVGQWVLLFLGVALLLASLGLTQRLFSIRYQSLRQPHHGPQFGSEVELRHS
Briefly: Inhibition of rabbit lung ACE by the method of Friedland and Silverstein. It counts as biochemical. The conditions noted are these: read-out: IC50 (concentration inhibiting 50% of the activity of rabbit lung ACE). How it is done: The evaluation of converting enzyme inhibitors is introduced from the analysis of enzyme inhibition in a test tube. One example of inhibition activity of the compounds of the present invention calculated from the method of Friedland & Silverstein [Am. J. Clin. Pathol.
*Concentration inhibiting 50% of the activity of rabbit lung ACE was
determined by the method of Friedland and Silverstein.

In test [1] the test system is pressor response to Angiotensin I (AI). Briefly: Inhibition of the pressor response to angiotensin I after i.v. administration, area under the AI inhibition response vs. time curve. It counts as in vivo. Also on record: unit not given beside the values. The note with it: test compound 50 μg/Kg i.v.; AI 300 ng/Kg into femoral vein; 0 to 360 min. Here is the method:
**Angiotensin I (AI, 300 ng/Kg) were injected into the femoral vein at
intervals of 10 min until the constant pressor response to AI was
180, 300 and 360 min after i.v. administration of the test compound (50
μg/Kg), and AVC (area under the curve) was calculated by the AI
inhibition response vs. time curves for 0 to 360 min.

For the molecule `C[C@H](N[C@@H](CCCCCCCN)C(=O)O)C(=O)N1CCC[C@H]1C(=O)O` [Compound 1, N-[1(S)-carboxy-8-aminooctyl]-L-alanyl-L-proline], on rabbit lung ACE, the IC50 stood at 0.75 nM. In test [1], the “(iv) AUC (area under the AI inhibition response vs. time curve)” value is 509. Take `C[C@H](N[C@@H](CCCCC1CCNCC1)C(=O)O)C(=O)N1CCC[C@H]1C(=O)O` [Compound 2, N-[1(S)-carboxy-5-(4-piperidyl)pentyl]-L-alanyl-L-proline]: the IC50 on rabbit lung ACE came out at 1 nM. Moreover, the “(iv) AUC (area under the AI inhibition response vs. time curve)” value in test [1] turned out to be 429. On to `C[C@H](N[C@@H](CCCCCC1CCNCC1)C(=O)O)C(=O)N1CCC[C@H]1C(=O)O` [Compound 3, N-[1(S)-carboxy-6-(4-piperidyl)hexyl]-L-alanyl-L-proline], for which, on rabbit lung ACE, the IC50 was 1.1 nM. Also, the “(iv) AUC (area under the AI inhibition response vs. time curve)” value in test [1] turned out to be 424. On to `NCCCCCCC[C@H](N[C@@H](CCCCN)C(=O)N1CCC[C@H]1C(=O)O)C(=O)O` [Compound 4, N^α -[1(S)-carboxy-8-aminooctyl]-L-lysyl-L-proline], for which the IC50 at rabbit lung ACE turned out to be 0.7 nM. Moreover, in test [1], the “(iv) AUC (area under the AI inhibition response vs. time curve)” value was 431.

As to `NCCCC[C@H](N[C@@H](CCCCC1CCNCC1)C(=O)O)C(=O)N1CCC[C@H]1C(=O)O` [Compound 5, N^α -[1(S)-carboxy-5-(4-piperidyl)pentyl]-L-lysyl-L-proline], the IC50 on rabbit lung ACE was found to be 1 nM. Also, in test [1], the “(iv) AUC (area under the AI inhibition response vs. time curve)” value was 460.

On to `NCCCC[C@H](N[C@@H](CCCCCC1CCNCC1)C(=O)O)C(=O)N1CCC[C@H]1C(=O)O` [Compound 9, N^α -[1(S)-carboxy-6-(4-piperidyl)hexyl]-L-lysyl-L-proline], for which the IC50 at rabbit lung ACE stood at 1 nM.

For the molecule `C[C@H](N[C@@H](CCCCCC1CCNCC1)C(=O)O)C(=O)N1[C@H](C(=O)O)C[C@@H]2CCCC[C@@H]21` [Compound 10, 1-[N-[1(S)-carboxy-6-(4-piperidyl)hexyl]-L-alanyl]-(2α,3aβ,7aβ)-octahydro-1H-indole-2(S)-carboxylic acid], the IC50 on rabbit lung ACE was determined as 0.9 nM. For the molecule `C[C@H](N[C@@H](CCCCC1CCNCC1)C(=O)O)C(=O)N1[C@H](C(=O)O)C[C@@H]2CCCC[C@@H]21` [Compound 11, 1-[N-[1(S)-carboxy-5-(4-piperidyl)pentyl]-L-alanyl]-(2α,3aβ,7aβ)-octahydro-1H-indole-2(S)-carboxylic acid], the IC50 at rabbit lung ACE amounted to 0.62 nM. On to `CC(NC(CCCCCCN)C(=O)O)C(=O)N1CCCC1C(=O)O` (stereo not drawn) [Compound 12, reference compound], for which, on rabbit lung ACE, the IC50 was determined as 1.4 nM. Besides, in test [1], the “(iv) AUC (area under the AI inhibition response vs. time curve)” value worked out at 368.

The values are drawn from patent US4897483A, “Amino acid derivatives as antihypertensives” (Asahi Breweries Ltd., priority 1987, dated 1990).
